± gives the expanded uncertainty stated by the source.
Settings: Liquid, Hot wire method

FC(F)CC(F)(F)F [1,1,1,3,3-pentafluoropropane]
Settings	thermal conductivity [W/m/K]
323.16 K, 330 kPa	0.08023 ± 0.001
323.16 K, 19684 kPa	0.09037 ± 0.0012
323.16 K, 19687 kPa	0.09046 ± 0.0012
323.23 K, 13828 kPa	0.0878 ± 0.0011
323.23 K, 13836 kPa	0.08777 ± 0.0011
323.31 K, 8785 kPa	0.08509 ± 0.0011
323.31 K, 8786 kPa	0.08508 ± 0.0011
323.33 K, 69855 kPa	0.1079 ± 0.0014
323.33 K, 69859 kPa	0.1079 ± 0.0014
323.4 K, 58551 kPa	0.1046 ± 0.0013
323.41 K, 58550 kPa	0.1047 ± 0.0013
323.46 K, 49806 kPa	0.1018 ± 0.0013
323.46 K, 49813 kPa	0.1019 ± 0.0013
323.52 K, 40518 kPa	0.09873 ± 0.0013
323.52 K, 40523 kPa	0.09883 ± 0.0013
323.56 K, 33191 kPa	0.09593 ± 0.0012
323.57 K, 33190 kPa	0.0959 ± 0.0012
323.65 K, 26145 kPa	0.09305 ± 0.0012
323.65 K, 26148 kPa	0.09303 ± 0.0012
323.66 K, 4345 kPa	0.08263 ± 0.0011
323.67 K, 4353 kPa	0.08281 ± 0.0011
323.71 K, 19685 kPa	0.09038 ± 0.0012
323.72 K, 19683 kPa	0.09025 ± 0.0012
323.74 K, 330 kPa	0.08004 ± 0.001
323.74 K, 331 kPa	0.08014 ± 0.001
323.8 K, 13825 kPa	0.08771 ± 0.0011
323.8 K, 13826 kPa	0.08762 ± 0.0011
323.88 K, 8784 kPa	0.08522 ± 0.0011
323.89 K, 8785 kPa	0.08516 ± 0.0011
341.35 K, 31717 kPa	0.09048 ± 0.0012
341.36 K, 791 kPa	0.07387 ± 0.00096
341.36 K, 807 kPa	0.07373 ± 0.00095
341.36 K, 31723 kPa	0.09099 ± 0.0012
341.37 K, 4061 kPa	0.07637 ± 0.00099
341.37 K, 4066 kPa	0.07637 ± 0.00099
341.37 K, 8227 kPa	0.07909 ± 0.001
341.38 K, 8222 kPa	0.07861 ± 0.001
341.39 K, 12846 kPa	0.08132 ± 0.001
341.4 K, 12858 kPa	0.08189 ± 0.001
341.41 K, 18251 kPa	0.08455 ± 0.0011
341.42 K, 18258 kPa	0.08459 ± 0.0011
341.43 K, 24450 kPa	0.08726 ± 0.0011
341.44 K, 24457 kPa	0.08772 ± 0.0011
341.44 K, 39673 kPa	0.09407 ± 0.0012
341.44 K, 39675 kPa	0.0951 ± 0.0012
341.65 K, 48504 kPa	0.09719 ± 0.0012
341.66 K, 48505 kPa	0.09738 ± 0.0012
341.69 K, 58414 kPa	0.1006 ± 0.0013
341.71 K, 58417 kPa	0.101 ± 0.0013
341.73 K, 69248 kPa	0.1039 ± 0.0013
341.75 K, 69269 kPa	0.1038 ± 0.0013
341.77 K, 31709 kPa	0.09087 ± 0.0012
341.77 K, 31711 kPa	0.09067 ± 0.0012
341.79 K, 800 kPa	0.07352 ± 0.00095
341.79 K, 8213 kPa	0.07901 ± 0.001
341.79 K, 8220 kPa	0.07915 ± 0.001
341.8 K, 798 kPa	0.074 ± 0.00096
341.8 K, 4049 kPa	0.07607 ± 0.00098
341.8 K, 4060 kPa	0.07627 ± 0.00099
341.8 K, 12862 kPa	0.08133 ± 0.001
341.8 K, 18252 kPa	0.08459 ± 0.0011
341.8 K, 18254 kPa	0.0841 ± 0.0011
341.81 K, 12851 kPa	0.08125 ± 0.001
341.81 K, 24448 kPa	0.08731 ± 0.0011
341.81 K, 24452 kPa	0.08759 ± 0.0011
341.83 K, 39657 kPa	0.09382 ± 0.0012
341.83 K, 39667 kPa	0.09362 ± 0.0012
342.05 K, 48492 kPa	0.09719 ± 0.0012
342.06 K, 48492 kPa	0.09719 ± 0.0012
342.09 K, 58399 kPa	0.1006 ± 0.0013
342.1 K, 58406 kPa	0.1005 ± 0.0013
342.12 K, 69235 kPa	0.1042 ± 0.0013
342.12 K, 69238 kPa	0.104 ± 0.0013
342.21 K, 31695 kPa	0.09091 ± 0.0012
342.23 K, 24443 kPa	0.08756 ± 0.0011
342.23 K, 31701 kPa	0.09082 ± 0.0012
342.24 K, 18254 kPa	0.08456 ± 0.0011
342.24 K, 18263 kPa	0.08459 ± 0.0011
342.24 K, 24457 kPa	0.08773 ± 0.0011
342.25 K, 8211 kPa	0.079 ± 0.001
342.25 K, 8213 kPa	0.0788 ± 0.001
342.25 K, 12847 kPa	0.08139 ± 0.001
342.26 K, 12846 kPa	0.08139 ± 0.001
342.27 K, 4048 kPa	0.07633 ± 0.00099
342.27 K, 39655 kPa	0.09411 ± 0.0012
342.28 K, 795 kPa	0.07417 ± 0.00096
342.28 K, 4064 kPa	0.07591 ± 0.00098
342.28 K, 39659 kPa	0.09393 ± 0.0012
342.29 K, 784 kPa	0.07414 ± 0.00096
342.49 K, 48484 kPa	0.09716 ± 0.0012
342.51 K, 48493 kPa	0.09719 ± 0.0012
342.51 K, 58384 kPa	0.1004 ± 0.0013
342.53 K, 58390 kPa	0.1005 ± 0.0013
342.53 K, 69205 kPa	0.104 ± 0.0013
342.54 K, 69218 kPa	0.1038 ± 0.0013
342.7 K, 24435 kPa	0.08753 ± 0.0011
342.71 K, 18288 kPa	0.08467 ± 0.0011
342.71 K, 24437 kPa	0.08761 ± 0.0011
342.72 K, 31697 kPa	0.09082 ± 0.0012
342.72 K, 31698 kPa	0.09091 ± 0.0012
342.73 K, 18277 kPa	0.08453 ± 0.0011
342.74 K, 12836 kPa	0.08165 ± 0.001
342.75 K, 12854 kPa	0.08161 ± 0.001
342.75 K, 39640 kPa	0.09416 ± 0.0012
342.75 K, 39649 kPa	0.09419 ± 0.0012
342.77 K, 8198 kPa	0.07878 ± 0.001
342.77 K, 8214 kPa	0.07886 ± 0.001
342.8 K, 4060 kPa	0.07628 ± 0.00099
342.81 K, 4048 kPa	0.07623 ± 0.00099
342.82 K, 778 kPa	0.074 ± 0.00096
342.83 K, 779 kPa	0.07358 ± 0.00095
342.98 K, 48479 kPa	0.09746 ± 0.0013
342.99 K, 48476 kPa	0.09717 ± 0.0012
342.99 K, 58371 kPa	0.1007 ± 0.0013
342.99 K, 69188 kPa	0.1043 ± 0.0013
342.99 K, 69203 kPa	0.1043 ± 0.0013
343 K, 58374 kPa	0.1007 ± 0.0013
343.21 K, 24431 kPa	0.0874 ± 0.0011
343.22 K, 24434 kPa	0.0876 ± 0.0011
343.25 K, 18297 kPa	0.0846 ± 0.0011
343.25 K, 18305 kPa	0.08481 ± 0.0011
343.25 K, 31683 kPa	0.09097 ± 0.0012
343.25 K, 31692 kPa	0.09092 ± 0.0012
343.27 K, 39640 kPa	0.09411 ± 0.0012
343.28 K, 39648 kPa	0.09409 ± 0.0012
343.29 K, 12856 kPa	0.08212 ± 0.0011
343.3 K, 12844 kPa	0.08186 ± 0.001
343.33 K, 8193 kPa	0.07913 ± 0.001
343.33 K, 8208 kPa	0.07905 ± 0.001
343.38 K, 4043 kPa	0.07572 ± 0.00098
343.39 K, 4045 kPa	0.07592 ± 0.00098
343.42 K, 777 kPa	0.07373 ± 0.00095
343.43 K, 791 kPa	0.07347 ± 0.00095
343.48 K, 69162 kPa	0.1043 ± 0.0013
343.49 K, 69172 kPa	0.1045 ± 0.0013
343.5 K, 48465 kPa	0.09758 ± 0.0013
343.5 K, 58358 kPa	0.1009 ± 0.0013
343.5 K, 58363 kPa	0.1009 ± 0.0013
343.51 K, 48479 kPa	0.0974 ± 0.0012
